From US6127136A, “Detection of dioxin-like compounds by detection of transformed Ah receptor/ARNT complex” (Paracelsian, Inc., priority 1996, dated 2000)

Legend:
[1] = molecular target: T1, transformed Ah receptor/ARNT complex (Cavia porcellus, UniProt Q6J287); test: Ah-ELISA, cytosol volume, time and temperature optimization; assay type: biochemical, guinea pig (hepatic cytosol); design: from tissue; host or cells: hepatic cytosol of male Hartley guinea pigs (animals from Cornell Research Animal Resources)
Protocol: The reagents and ELISA plate were prepared as described in Example 8. The volume of cytosol, temperature of cytosol incubation and time of incubation were all varied independently. The test volume of cytosol was varied between 50 and 200 μl at 50 μl increments. […] The assay was with a cytosol incubation varying between 30 and 120 minutes at 30 minute increments.

[2] = molecular target: T1, transformed Ah receptor/ARNT complex; test: Ah-ELISA dose response using an amplified detection system; assay type: biochemical, guinea pig (hepatic cytosol); design: from tissue; host or cells: hepatic cytosol of male Hartley guinea pigs (animals from Cornell Research Animal Resources); conditions: for Average Optical Density: 490 nm, amplified, 28 minutes
Protocol: The reagents and ELISA plate were prepared as described in Example 9 with an amplified detection system. The TCDD concentration was varied tested at 0, 0.016, 0.031, 0.063, 0.125, 0.25, 0.5, 1.0, 2.0, and 4.0 nM.
The amplified detection system used was the alkaline phosphatase/NADP system published by Johannson et al. (J IMM Meth 87: 7-11, 1986). This system is sold as a kit under the trademark Ampak™ by DAKO.
2x enzyme stock was made by dissolving 8 mg alcohol dehydrogenase, 1.4 mg Diaphorase, 133 mg bovine serum albumin in 40 ml AMP buffer (2.3 g 85% HPLC grade phosphoric acid in a total volume of 960 ml water, pH adjusted to 7.2 with 6N NaOH, and 40 ml of ethanol was added to make 1 L). 2x INT stock was made by dissolving 50 mg INT Violet dye in 50 mL AMP buffer.
After washing the plates, 100 μl of NADP stock (0.837 mg in 10 ml of AP buffer (diethanolamine 50 mM, 1 mM MgCl2, 0.1 mM ZnCl2, 15 mM NaN3, pH 9.5)) was added and allowed to incubate at room temperature for 30 minutes. Sensitivity can be increased by increasing amount of NADP or time of incubation. The 2x enzyme stock and 2x INT stock were mixed and 200 μl of the mixture was added per well. The OD was read at 490 nm (usually read at 1 minute intervals for up to 30 minutes). The results are shown below at 28 minutes.

T1 sequence (Q6J287 1-846): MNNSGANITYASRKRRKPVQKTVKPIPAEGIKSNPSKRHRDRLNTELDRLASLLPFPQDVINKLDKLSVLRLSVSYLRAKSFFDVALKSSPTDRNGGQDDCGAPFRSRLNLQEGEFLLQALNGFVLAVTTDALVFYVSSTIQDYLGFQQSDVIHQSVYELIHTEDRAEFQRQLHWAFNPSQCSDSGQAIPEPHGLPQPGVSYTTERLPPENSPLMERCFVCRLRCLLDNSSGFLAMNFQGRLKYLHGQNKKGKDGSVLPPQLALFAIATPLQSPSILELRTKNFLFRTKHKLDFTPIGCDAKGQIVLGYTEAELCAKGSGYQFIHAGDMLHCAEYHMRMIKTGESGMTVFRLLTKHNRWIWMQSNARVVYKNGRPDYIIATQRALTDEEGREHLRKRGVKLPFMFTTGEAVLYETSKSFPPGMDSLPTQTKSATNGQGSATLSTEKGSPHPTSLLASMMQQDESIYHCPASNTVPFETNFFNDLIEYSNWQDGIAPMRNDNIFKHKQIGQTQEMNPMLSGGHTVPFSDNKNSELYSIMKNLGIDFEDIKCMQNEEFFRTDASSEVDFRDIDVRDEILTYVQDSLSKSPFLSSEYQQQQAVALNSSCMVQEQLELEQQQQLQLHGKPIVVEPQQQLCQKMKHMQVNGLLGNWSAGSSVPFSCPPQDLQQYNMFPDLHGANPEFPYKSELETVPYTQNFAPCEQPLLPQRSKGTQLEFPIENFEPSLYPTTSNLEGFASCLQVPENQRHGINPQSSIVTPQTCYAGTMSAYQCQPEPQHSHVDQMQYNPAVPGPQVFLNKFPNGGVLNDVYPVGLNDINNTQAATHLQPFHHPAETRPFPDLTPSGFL
T1 sequence (Q0WXX3 1-790 partner): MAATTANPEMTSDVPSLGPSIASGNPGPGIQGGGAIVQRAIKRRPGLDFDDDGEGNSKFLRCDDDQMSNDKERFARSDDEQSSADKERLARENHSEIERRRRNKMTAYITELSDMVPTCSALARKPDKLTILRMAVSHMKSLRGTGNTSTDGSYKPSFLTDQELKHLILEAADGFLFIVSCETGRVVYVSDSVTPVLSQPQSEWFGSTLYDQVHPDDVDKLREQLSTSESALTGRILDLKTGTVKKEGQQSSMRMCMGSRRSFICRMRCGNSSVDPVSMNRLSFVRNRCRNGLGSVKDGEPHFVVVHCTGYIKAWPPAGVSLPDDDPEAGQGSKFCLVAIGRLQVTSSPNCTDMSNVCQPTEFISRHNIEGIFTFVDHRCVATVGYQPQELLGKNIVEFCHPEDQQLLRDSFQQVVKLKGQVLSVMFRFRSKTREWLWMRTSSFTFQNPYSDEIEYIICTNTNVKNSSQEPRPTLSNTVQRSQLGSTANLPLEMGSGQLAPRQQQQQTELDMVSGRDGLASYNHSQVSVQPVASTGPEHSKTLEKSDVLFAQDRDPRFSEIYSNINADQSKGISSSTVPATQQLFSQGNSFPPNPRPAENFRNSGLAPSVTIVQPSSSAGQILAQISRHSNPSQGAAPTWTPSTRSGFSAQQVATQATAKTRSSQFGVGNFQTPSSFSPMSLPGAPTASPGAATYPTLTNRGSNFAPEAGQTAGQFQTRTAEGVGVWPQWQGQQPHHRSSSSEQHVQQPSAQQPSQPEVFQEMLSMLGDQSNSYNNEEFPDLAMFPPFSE

Clc1cc2c(cc1Cl)Oc1cc(Cl)c(Cl)cc1O2 [TCDD, 2,3,7,8-tetrachlorodibenzo-p-dioxin]
ave(+)-BG ([1]; 50 uL, 120 min, 30 C): 1006 | difference ([1]; 50 uL, 120 min, 30 C): 984 | ave(+)-BG ([1]; 100 uL, 120 min, 30 C): 1463 | difference ([1]; 100 uL, 120 min, 30 C): 1430 | ave(+)-BG ([1]; 150 uL, 120 min, 30 C): 1910 | difference ([1]; 150 uL, 120 min, 30 C): 1867 | ave(+)-BG ([1]; 200 uL, 30 min, 30 C): 394 | difference ([1]; 200 uL, 30 min, 30 C): 359 | ave(+)-BG ([1]; 200 uL, 30 min, 38 C): 525 | difference ([1]; 200 uL, 30 min, 38 C): 497 | ave(+)-BG ([1]; 200 uL, 60 min, 30 C): 1324 | difference ([1]; 200 uL, 60 min, 30 C): 1288 | ave(+)-BG ([1]; 200 uL, 90 min, 30 C): 1882 | difference ([1]; 200 uL, 90 min, 30 C): 1839 | ave(+)-BG ([1]; 200 uL, 120 min, 22 C): 1924 | difference ([1]; 200 uL, 120 min, 22 C): 1863 | ave(+)-BG ([1]; 200 uL, 120 min, 30 C): 2369 | difference ([1]; 200 uL, 120 min, 30 C): 2324 | ave(+)-BG ([1]; 200 uL, 120 min, 35 C): 959 | difference ([1]; 200 uL, 120 min, 35 C): 898 | Average Optical Density ([2]; 0.016 nM TCDD): 0.203 | Average Optical Density ([2]; 0.031 nM TCDD): 0.228 | Average Optical Density ([2]; 0.063 nM TCDD): 0.293 | Average Optical Density ([2]; 0.125 nM TCDD): 0.414 | Average Optical Density ([2]; 0.25 nM TCDD): 0.675 | Average Optical Density ([2]; 0.5 nM TCDD): 1.036 | Average Optical Density ([2]; 1 nM TCDD): 1.421 | Average Optical Density ([2]; 2 nM TCDD): 1.803 | Average Optical Density ([2]; 4 nM TCDD): 1.844 | EC50 ([2]; amplified detection, FIG. 7): ~0.248 nM
